The values below come from ChEMBL document CHEMBL1201862, “PubChem BioAssay data set” (2004).

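A five-concentration, 48-hour dose response in 96-well plates underlies each endpoint, interpolated linearly between surrounding concentrations. Here, GI50 denotes the concentration required for 50% inhibition of growth.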 The source made the active and inactive calls. Rule as the data show it: active = GI50 up to about 1.1 µM and inactive = higher. Some results are limits rather than exact numbers.

Common to all, as to test: NCI-60 cell line screen, 48 h
Test [1] has as its system HL-60.
The subject of test [2] is BT-549.
Test [3] deals with SK-MEL-28.
Test [4] deals with UO-31.
Test [5] concerns M14.
The subject of test [6] is IGROV-1.
Test [7] deals with HT-29.
The test system of test [8] is SF-268.
In test [9] the test system is HCC 2998.
The subject of test [10] is MDA-MB-435.
In test [11] the test system is Hs-578T.
The test system of test [12] is SW-620.
The test system of test [13] is EKVX.
Test [14] relates to UACC-257.
For test [15], the system named is HCT-116.
Test [16] relates to SK-MEL-2.
Test [17] concerns SK-MEL-5.
For test [18], the system named is ACHN.
Test [19] has as its system NCI-H226.
The subject of test [20] is RPMI-8226.

With `COc1ccc(-c2nc3c(C(=O)NCCN(C)C)cccc3c3ccccc23)cc1`, the GI50 in [1] is 2.07 µM (inactive); in test [2] it was 10.5 µM (inactive); in test [3], 1.97 µM (inactive); in test [4], 1.16 µM (inactive); in test [5] it was 1.98 µM (inactive); in [6], 3.47 µM (inactive). The GI50 in [7] was 2.51 µM (inactive); in test [8], 8.53 µM (inactive); in [9], 1.95 µM (inactive); in test [10] it was 2.2 µM (inactive); in test [11], 5.3 µM (inactive); in test [12], 3.62 µM (inactive). Besides, the GI50 in test [13] is 6.78 µM (inactive); in test [14] it was 1.89 µM (inactive); in test [15], 3.46 µM (inactive); in test [16], 5.21 µM (inactive); in [17], 1.74 µM (inactive); in [18], 3.25 µM (inactive). For the same compound, the GI50 in test [19] was 5.57 µM (inactive).

`Cc1ccc(C)c2c1C/C(=C\c1ccccc1C(=O)O)C2=O`: the GI50 is 40.9 µM (inactive) in [1]; > 100 µM (inactive) in test [2]; > 100 µM (inactive) in test [3]; > 100 µM (inactive) in test [4]; > 100 µM (inactive) in test [5]; > 100 µM (inactive) in test [6]. The GI50 in test [7] was > 100 µM (inactive); in test [8], 89.3 µM (inactive); in [9], > 100 µM (inactive); in test [10] it was 67.5 µM (inactive); in test [11] it was > 100 µM (inactive); in [12] it was > 100 µM (inactive). The GI50 in test [13] was 45.7 µM (inactive); in [14] it was > 100 µM (inactive); in [15], > 100 µM (inactive); in test [20], 27.7 µM (inactive); in [17], 42.7 µM (inactive); in test [18] it was > 100 µM (inactive). Besides, the GI50 in test [19] was 20.8 µM (inactive).

Take `COC(=O)c1sc(=S)sc1SCc1cccc(CSc2sc(=S)sc2C(=O)OC)c1`: the GI50 in [2] was 26.9 µM (inactive); in [3], > 100 µM (inactive); in [4], > 100 µM (inactive); in [5], 71.3 µM (inactive); in [6], 60.7 µM (inactive); in test [7] it was > 100 µM (inactive). Besides, the GI50 in [8] was 44.5 µM (inactive); in test [9], > 100 µM (inactive); in test [10], > 100 µM (inactive); in test [11], 36.3 µM (inactive); in [12], > 100 µM (inactive); in test [13], 56 µM (inactive). Further, the GI50 is > 100 µM (inactive) in [14]; 90.6 µM (inactive) in [15]; > 100 µM (inactive) in test [20]; 38.8 µM (inactive) in test [16]; > 100 µM (inactive) in test [17]; 28.8 µM (inactive) in test [18].

In the case of `O=C1CC(CC(O)C(O)CO)CC(=O)N1` (configuration not stated), the GI50 in test [1], in [2], in [3], in [4], in [5] and in [6] was > 100 µM (inactive) in each case. Also, the GI50 in test [7], in test [8], in test [9], in [10], in test [11] and in [12] was > 100 µM (inactive) in each case. Further, the GI50 in [13], in [14], in test [15], in test [20], in test [17] and in [18] was > 100 µM (inactive) in each case. Also, in test [19], the GI50 was > 100 µM (inactive).

For `COCCOC(=O)C(C)=[N+]=[N-]`, the GI50 in test [2], in [3], in [4], in test [6], in [7] and in test [8] was > 100 µM (inactive) in each case. The GI50 in [9], in test [10], in [11], in test [12], in test [13] and in test [14] was > 100 µM (inactive) throughout. For the same compound, the GI50 in test [15], in test [20], in test [17], in test [18] and in [19] was > 100 µM (inactive) in each case.

`CC(=O)c1[nH]c(NCc2ccccc2)c(C(=S)Nc2ccccc2)c1N`: the GI50 was 5.32 µM (inactive) in [1]; 23.5 µM (inactive) in test [2]; 24.2 µM (inactive) in test [3]; 0.452 µM (active) in [4]; 18.9 µM (inactive) in test [5]; 0.317 µM (active) in test [6]. The GI50 is 31.3 µM (inactive) in [7]; 21.5 µM (inactive) in test [8]; 20.5 µM (inactive) in [9]; 18.2 µM (inactive) in [10]; 24 µM (inactive) in test [11]; 32.1 µM (inactive) in [12]. In addition, the GI50 in test [13] is 27.1 µM (inactive); in [14], 24.2 µM (inactive); in test [15], 18.4 µM (inactive); in test [16] it was 0.258 µM (active); in test [17], 17.1 µM (inactive); in test [18] it was 29 µM (inactive). For the same compound, in test [19], the GI50 was 18.2 µM (inactive).

As to `O=C1NNC2NC(=O)C3(NN2C1=O)c1ccccc1-c1ccccc13` (configuration not stated), the GI50 in test [1] is > 100 µM (inactive); in [2], > 100 µM (inactive); in test [3], > 10 µM (inactive); in test [4] it was > 100 µM (inactive); in test [5], > 100 µM (inactive); in test [6], > 100 µM (inactive). The GI50 in test [7], in test [8], in test [9], in [10], in test [11] and in test [12] was > 100 µM (inactive) in each case. In addition, the GI50 in test [13], in test [14], in test [15], in [16], in test [17] and in test [18] was > 100 µM (inactive) each time. In [19], the GI50 is > 100 µM (inactive).

`COC(=O)C(=O)C(C(=O)C(=O)Nc1ccc(Cl)cc1Cl)c1nc2ccc(Cl)cc2nc1O` (configuration not stated): the GI50 in test [1] is > 100 µM (inactive); in test [2], > 100 µM (inactive); in test [3], > 100 µM (inactive); in [4], 28.4 µM (inactive); in test [5], > 100 µM (inactive); in test [6], 58.7 µM (inactive). Moreover, the GI50 in [7], in test [8], in test [9], in test [10], in [11] and in test [12] was > 100 µM (inactive) throughout. Also, the GI50 was 17.1 µM (inactive) in [13]; > 100 µM (inactive) in [14]; > 100 µM (inactive) in test [15]; > 100 µM (inactive) in test [16]; > 100 µM (inactive) in test [17]; > 100 µM (inactive) in [18]. Also, the GI50 in test [19] was 49 µM (inactive).

As for `C1=C(c2ccccc2)C(N2CCOCC2)Oc2ccccc21` (configuration not stated), the GI50 is 42.7 µM (inactive) in test [1]; 45.3 µM (inactive) in test [2]; > 100 µM (inactive) in test [3]; 87.7 µM (inactive) in test [4]; > 100 µM (inactive) in test [5]; > 100 µM (inactive) in test [6]. In addition, the GI50 in [7], in test [8], in test [9], in test [10], in test [11] and in test [12] was > 100 µM (inactive) each time. The GI50 in test [13] was > 100 µM (inactive); in test [14] it was > 100 µM (inactive); in test [15] it was > 100 µM (inactive); in test [20], 96.4 µM (inactive); in test [17] it was > 100 µM (inactive); in test [18], > 100 µM (inactive). In addition, the GI50 in [19] is > 100 µM (inactive).

Turning to `N#CCC1COc2ccccc2O1` (configuration not stated), the GI50 in test [1], in test [2], in test [3], in [5], in test [6] and in test [7] was > 10 µM (inactive) in each case. Besides, the GI50 in [8], in test [9], in test [10], in test [11], in test [12] and in test [14] was > 10 µM (inactive) throughout. For the same compound, the GI50 in test [15], in test [20], in test [17] and in [18] was > 10 µM (inactive) each time.

With `CCSC1SC(c2ccccc2)(c2ccccc2)c2ccccc21` (configuration not stated), the GI50 in [2] is 39.8 µM (inactive); in test [3] it was 79.8 µM (inactive); in test [4] it was 47.5 µM (inactive); in [5], 31.2 µM (inactive); in test [6], 75.3 µM (inactive); in test [7] it was 34.6 µM (inactive). The GI50 in test [8] is 93.1 µM (inactive); in test [9] it was 45.1 µM (inactive); in [10], 33.7 µM (inactive); in test [11], 54.3 µM (inactive); in test [12] it was 54.8 µM (inactive); in [13] it was 51.3 µM (inactive). Also, the GI50 in test [14] is 26.4 µM (inactive); in test [15] it was 30.8 µM (inactive); in test [20], 32.8 µM (inactive); in test [17] it was 26.4 µM (inactive); in [18] it was 44.7 µM (inactive); in test [19] it was 31.6 µM (inactive).
